Assays:
Experiment in all cases: Test D controlled growth environment herbicide test, pre- and postemergence
Type in all cases: in vivo
[1] = system: barley, spring (spring barley, Hordeum vulgare)
Method in brief: (§1)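 Pre-emergence: seeds sown in silt loam soil were sprayed with compound in a non-phytotoxic solvent mix containing surfactant. Post-emergence: plants at 2 to 18 cm (1- to 4-leaf stage) in peat moss/vermiculite medium got the same formulation. Visual 0–100 rating versus controls after 14 to 21 d.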

[2] = system: bromegrass, downy (downy bromegrass, Bromus tectorum)
Method in brief: as §1

[3] = system: chamomile (scentless chamomile, Matricaria inodora)
Method in brief: as §1

[4] = system: deadnettle (henbit deadnettle, Lamium amplexicaule)
Method in brief: as §1

[5] = system: field violet (Viola arvensis)
Method in brief: as §1

[6] = system: lambsquarters (Chenopodium album)
Method in brief: as §1

[7] = system: mustard, wild (wild mustard, Sinapis arvensis)
Method in brief: as §1

[8] = system: oat, wild (wild oat, Avena fatua)
Method in brief: as §1

[9] = system: oilseed rape (Brassica napus)
Method in brief: as §1

[10] = system: radish, wild (wild radish, Raphanus raphanistrum)
Method in brief: as §1

[11] = system: speedwell (bird's-eye speedwell, Veronica persica)
Method in brief: as §1

[12] = system: wheat, spring (spring wheat, Triticum aestivum)
Method in brief: as §1

[13] = system: windgrass (Apera spica-venti)
Method in brief: as §1

[14] = Postemergence, 31 g ai/ha, scale 0 to 100 (0 no effect, 100 complete control)
[15] = Postemergence, 125 g ai/ha, visual rating on scale 0 (no effect) to 100 (complete control), 14 to 21 d
[16] = Postemergence, 250 g ai/ha, scale 0 to 100 (0 no effect, 100 complete control)
[17] = Preemergence, 62 g ai/ha, scale 0 to 100 (0 no effect, 100 complete control)
[18] = Preemergence, 125 g ai/ha, scale 0 to 100 (0 no effect, 100 complete control)
[19] = Preemergence, 250 g ai/ha, scale 0 to 100 (0 no effect, 100 complete control)
[20] = postemergence, 62 g ai/ha, scale 0 to 100, 0 no effect, 100 complete control

C#CCOC(=O)Oc1c(C)nn(C)c(=O)c1-c1c(C)sc2ccc(C)cc12 [Compound 87]
60: Plant response rating, Deadnettle [4, 16] | Plant response rating, Mustard, Wild [7, 16] | Plant response rating, Radish, Wild [10, 16]
100: Plant response rating, Chamomile [3, 15] | Plant response rating, Chamomile [3, 16] | Plant response rating, Chamomile [3, 18] | Plant response rating, Chamomile [3, 19] | Plant response rating, Chamomile [3, 20] | Plant response rating, Field Violet [5, 15] | Plant response rating, Field Violet [5, 16] | Plant response rating, Field Violet [5, 19] | Plant response rating, Lambsquarters [6, 15] | Plant response rating, Lambsquarters [6, 16] | Plant response rating (scale of 0 to 100), Lambsquarters ([6]; Preemergence, 62 g ai/ha) | Plant response rating, Lambsquarters [6, 18] | Plant response rating, Lambsquarters [6, 19] | Plant response rating, Lambsquarters [6, 20] | Plant response rating, Oat, Wild [8, 16] | Plant response rating, Speedwell [11, 19] | Plant response rating, Windgrass [13, 16] | Plant response rating, Windgrass [13, 19]
45: Bromegrass, Downy plant response rating [2, 14] | Plant response rating, Oilseed Rape [9, 19] | Plant response rating (scale of 0 to 100), Radish, Wild ([10]; Preemergence, 31 g ai/ha)
0: Barley, Spring plant response rating [1, 14] | Plant response rating, Barley, Spring [1, 15] | Plant response rating (scale of 0 to 100), Barley, Spring ([1]; Preemergence, 31 g ai/ha) | Plant response rating, Barley, Spring [1, 17] | Plant response rating, Barley, Spring [1, 18] | Plant response rating, Barley, Spring [1, 20] | Plant response rating (scale of 0 to 100), Mustard, Wild ([7]; Preemergence, 31 g ai/ha) | Plant response rating (scale of 0 to 100), Mustard, Wild ([7]; Preemergence, 62 g ai/ha) | Plant response rating, Mustard, Wild [7, 18] | Wheat, Spring plant response rating [12, 14] | Plant response rating (scale of 0 to 100), Wheat, Spring ([12]; Preemergence, 31 g ai/ha) | Plant response rating (scale of 0 to 100), Wheat, Spring ([12]; Preemergence, 62 g ai/ha) | Plant response rating, Wheat, Spring [12, 20]
70: Plant response rating, Deadnettle [4, 19] | Plant response rating (scale of 0 to 100), Lambsquarters ([6]; Preemergence, 31 g ai/ha) | Speedwell plant response rating [11, 14]
80: Plant response rating, Bromegrass, Downy [2, 19] | Field Violet plant response rating [5, 14] | Plant response rating (scale of 0 to 100), Field Violet ([5]; Preemergence, 31 g ai/ha) | Plant response rating (scale of 0 to 100), Oat, Wild ([8]; Preemergence, 31 g ai/ha) | Plant response rating, Speedwell [11, 16] | Plant response rating (scale of 0 to 100), Speedwell ([11]; Preemergence, 31 g ai/ha) | Windgrass plant response rating [13, 14] | Plant response rating (scale of 0 to 100), Windgrass ([13]; Preemergence, 31 g ai/ha) | Plant response rating (scale of 0 to 100), Windgrass ([13]; Preemergence, 62 g ai/ha)
40: Plant response rating, Oilseed Rape [9, 20]
75: Plant response rating, Bromegrass, Downy [2, 18] | Plant response rating, Oilseed Rape [9, 16] | Plant response rating, Radish, Wild [10, 18] | Plant response rating, Speedwell [11, 15] | Plant response rating, Speedwell [11, 20]
20: Plant response rating, Radish, Wild [10, 20] | Plant response rating, Wheat, Spring [12, 19]
95: Plant response rating (scale of 0 to 100), Chamomile ([3]; Preemergence, 31 g ai/ha) | Plant response rating (scale of 0 to 100), Chamomile ([3]; Preemergence, 62 g ai/ha) | Plant response rating, Field Violet [5, 18] | Lambsquarters plant response rating [6, 14] | Plant response rating, Oat, Wild [8, 19] | Plant response rating, Oat, Wild [8, 20] | Plant response rating, Radish, Wild [10, 19]
35: Plant response rating, Deadnettle [4, 15] | Plant response rating (scale of 0 to 100), Deadnettle ([4]; Preemergence, 62 g ai/ha) | Plant response rating, Mustard, Wild [7, 20]
25: Plant response rating (scale of 0 to 100), Bromegrass, Downy ([2]; Preemergence, 31 g ai/ha) | Plant response rating (scale of 0 to 100), Deadnettle ([4]; Preemergence, 31 g ai/ha) | Plant response rating, Mustard, Wild [7, 15] | Plant response rating, Mustard, Wild [7, 19]
98: Plant response rating, Oat, Wild [8, 15]
15: Plant response rating, Deadnettle [4, 20] | Oilseed Rape plant response rating [9, 14] | Plant response rating (scale of 0 to 100), Oilseed Rape ([9]; Preemergence, 31 g ai/ha) | Radish, Wild plant response rating [10, 14] | Plant response rating, Wheat, Spring [12, 18]
65: Plant response rating, Bromegrass, Downy [2, 15] | Plant response rating, Bromegrass, Downy [2, 16] | Plant response rating, Bromegrass, Downy [2, 17] | Plant response rating, Bromegrass, Downy [2, 20] | Plant response rating, Deadnettle [4, 18] | Plant response rating, Oilseed Rape [9, 15] | Plant response rating (scale of 0 to 100), Radish, Wild ([10]; Preemergence, 62 g ai/ha)
85: Plant response rating (scale of 0 to 100), Field Violet ([5]; Preemergence, 62 g ai/ha) | Plant response rating, Field Violet [5, 20] | Oat, Wild plant response rating [8, 14] | Plant response rating (scale of 0 to 100), Oat, Wild ([8]; Preemergence, 62 g ai/ha) | Plant response rating (scale of 0 to 100), Speedwell ([11]; Preemergence, 62 g ai/ha) | Plant response rating, Windgrass [13, 15] | Plant response rating, Windgrass [13, 18] | Plant response rating, Windgrass [13, 20]
90: Chamomile plant response rating [3, 14] | Plant response rating, Oat, Wild [8, 18] | Plant response rating, Speedwell [11, 18]
10: Deadnettle plant response rating [4, 14] | Mustard, Wild plant response rating [7, 14] | Plant response rating, Wheat, Spring [12, 16]
30: Plant response rating (scale of 0 to 100), Oilseed Rape ([9]; Preemergence, 62 g ai/ha) | Plant response rating, Oilseed Rape [9, 18] | Plant response rating, Radish, Wild [10, 15]
5: Plant response rating, Barley, Spring [1, 16] | Plant response rating, Barley, Spring [1, 19] | Plant response rating, Wheat, Spring [12, 15]
